ChEMBL document CHEMBL1127517 (J Med Chem, 1994)

How the values were obtained:
[1] = target: T1, Sodium-dependent dopamine transporter (Rattus norvegicus, UniProt P23977); experiment: Inhibitory constant towards reuptake of [125I]-12 from dopamine transporter in rat striatal membranes; type: cell membranes, Membrane
[2] = target: T1, Sodium-dependent dopamine transporter; experiment: Inhibitory constant towards reuptake of [125I]-13 from dopamine transporter in rat striatal membranes; type: cell membranes, Membrane
Rattus norvegicus [3] = experiment: Distribution of radio activity in tissues of unfasted male rats was measured as regional uptake at 120 min of time in ST/CB after intravenous administration; type: ADME, organism-based; settings: in vivo, 2 h
Rattus norvegicus [4] = experiment: Distribution of radio activity in tissues of unfasted male rats was measured as regional uptake at 120 min of time in cerebellum after intravenous administration; type: ADME, organism-based; settings: in vivo, 2 h
Rattus norvegicus [5] = experiment: Distribution of radio activity in tissues of unfasted male rats was measured alungblood after intravenous administration; type: ADME, organism-based, Lung; settings: in vivo
Rattus norvegicus [6] = experiment: Distribution of radio activity in tissues of unfasted male rats was measured as at 2 min of time in skin after intravenous administration; type: ADME, organism-based; settings: in vivo
Rattus norvegicus [7] = experiment: Distribution of radio activity in tissues of unfasted male rats was measured at 120 min of time in blood after intravenous administration; type: ADME, organism-based; settings: in vivo, 2 h
Rattus norvegicus [8] = experiment: Distribution of radio activity in tissues of unfasted male rats was measured at 120 min of time in brain after intravenous administration; type: ADME, organism-based; settings: in vivo, 2 h
Rattus norvegicus [9] = experiment: Distribution of radio activity in tissues of unfasted male rats was measured at 120 min of time in heart after intravenous administration; type: ADME, organism-based; settings: in vivo, 2 h
Rattus norvegicus [10] = experiment: Distribution of radio activity in tissues of unfasted male rats was measured at 120 min of time in kidney after intravenous administration; type: ADME, organism-based; settings: in vivo, 2 h
Rattus norvegicus [11] = experiment: Distribution of radio activity in tissues of unfasted male rats was measured at 120 min of time in liver after intravenous administration; type: ADME, organism-based; settings: in vivo, 2 h
Rattus norvegicus [12] = experiment: Distribution of radio activity in tissues of unfasted male rats was measured at 120 min of time in lung after intravenous administration.; type: ADME, organism-based; settings: in vivo, 2 h
Rattus norvegicus [13] = experiment: Distribution of radio activity in tissues of unfasted male rats was measured at 120 min of time in muscle after intravenous administration; type: ADME, organism-based, Muscle tissue; settings: in vivo, 2 h
Rattus norvegicus [14] = experiment: Distribution of radio activity in tissues of unfasted male rats was measured at 120 min of time in skin after intravenous administration; type: ADME, organism-based; settings: in vivo, 2 h
Rattus norvegicus [15] = experiment: Distribution of radio activity in tissues of unfasted male rats was measured at 120 min of time in spleen after intravenous administration; type: ADME, organism-based; settings: in vivo, 2 h
Rattus norvegicus [16] = experiment: Distribution of radio activity in tissues of unfasted male rats was measured at 120 min of time in thyroid after intravenous administration; type: ADME, organism-based, Thyroid gland; settings: in vivo, 2 h
Rattus norvegicus [17] = experiment: Distribution of radio activity in tissues of unfasted male rats was measured at 2 min of time in blood after intravenous administration; type: ADME, organism-based; settings: in vivo
Rattus norvegicus [18] = experiment: Distribution of radio activity in tissues of unfasted male rats was measured at 2 min of time in brain after intravenous administration; type: ADME, organism-based; settings: in vivo
Rattus norvegicus [19] = experiment: Distribution of radio activity in tissues of unfasted male rats was measured at 2 min of time in heart after intravenous administration; type: ADME, organism-based; settings: in vivo
Rattus norvegicus [20] = experiment: Distribution of radio activity in tissues of unfasted male rats was measured at 2 min of time in kidney after intravenous administration; type: ADME, organism-based; settings: in vivo
Rattus norvegicus [21] = experiment: Distribution of radio activity in tissues of unfasted male rats was measured at 2 min of time in muscle after intravenous administration; type: ADME, organism-based, Muscle tissue; settings: in vivo
Rattus norvegicus [22] = experiment: Distribution of radio activity in tissues of unfasted male rats was measured as regional uptake at 60 min of time in cortex after intravenous administration; type: ADME, organism-based; settings: in vivo, 1 h
Rattus norvegicus [23] = experiment: Distribution of radio activity in tissues of unfasted male rats was measured as regional uptake at 60 min of time in hippocampus after intravenous administration; type: ADME, organism-based; settings: in vivo, 1 h
Rattus norvegicus [24] = experiment: Distribution of radio activity in tissues of unfasted male rats was measured as regional uptake at 60 min of time in striatum after intravenous administration; type: ADME, organism-based; settings: in vivo, 1 h
Rattus norvegicus [25] = experiment: Distribution of radio activity in tissues of unfasted male rats was measured at 30 min of time in lung after intravenous administration; type: ADME, organism-based; settings: in vivo, 0.5 h
Rattus norvegicus [26] = experiment: Distribution of radio activity in tissues of unfasted male rats was measured at 30 min of time in muscle after intravenous administration; type: ADME, organism-based, Muscle tissue; settings: in vivo, 0.5 h
Rattus norvegicus [27] = experiment: Distribution of radio activity in tissues of unfasted male rats was measured at 30 min of time in skin after intravenous administration; type: ADME, organism-based; settings: in vivo, 0.5 h
Rattus norvegicus [28] = experiment: Distribution of radio activity in tissues of unfasted male rats was measured at 30 min of time in kidney after intravenous administration; type: ADME, organism-based; settings: in vivo, 0.5 h
Rattus norvegicus [29] = experiment: Distribution of radio activity in tissues of unfasted male rats was measured at 30 min of time in liver after intravenous administration; type: ADME, organism-based; settings: in vivo, 0.5 h
Rattus norvegicus [30] = experiment: Distribution of radio activity in tissues of unfasted male rats was measured at 30 min of time in spleen after intravenous administration; type: ADME, organism-based; settings: in vivo, 0.5 h
Rattus norvegicus [31] = experiment: Distribution of radio activity in tissues of unfasted male rats was measured at 30 min of time in thyroid after intravenous administration; type: ADME, organism-based, Thyroid gland; settings: in vivo, 0.5 h

T1 sequence (P23977 whole entry): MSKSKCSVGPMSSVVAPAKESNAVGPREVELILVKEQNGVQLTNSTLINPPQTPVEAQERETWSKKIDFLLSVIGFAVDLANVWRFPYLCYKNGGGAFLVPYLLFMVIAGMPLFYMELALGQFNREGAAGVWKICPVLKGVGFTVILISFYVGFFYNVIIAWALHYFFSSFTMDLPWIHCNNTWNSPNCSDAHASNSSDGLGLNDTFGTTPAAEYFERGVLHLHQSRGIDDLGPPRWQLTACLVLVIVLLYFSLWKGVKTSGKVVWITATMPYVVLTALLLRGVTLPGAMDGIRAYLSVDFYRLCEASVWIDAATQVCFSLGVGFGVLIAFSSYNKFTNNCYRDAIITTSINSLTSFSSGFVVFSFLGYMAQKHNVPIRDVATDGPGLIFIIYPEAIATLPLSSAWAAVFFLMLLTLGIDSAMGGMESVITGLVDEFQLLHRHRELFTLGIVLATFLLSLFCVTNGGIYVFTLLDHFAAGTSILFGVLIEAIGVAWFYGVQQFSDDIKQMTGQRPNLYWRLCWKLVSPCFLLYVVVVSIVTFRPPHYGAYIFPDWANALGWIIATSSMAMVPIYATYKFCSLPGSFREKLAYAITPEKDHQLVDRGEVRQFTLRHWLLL

What does the source list for `COC(=O)C1C(c2ccc(Cl)cc2)CC2CCC1N2C/C=C\I` (stereo unspecified)?
Ki [1]: 1.27 nM; Ki [2]: 6.3 nM; Dose/g (Rattus norvegicus [3]): 1.9%; Dose/g (Rattus norvegicus [4]): 0.02%; Injected dose/organ (Rattus norvegicus [5]): 1.23%; Injected dose/organ (Rattus norvegicus [6]): 7.27%; Injected dose/organ (Rattus norvegicus [7]): 5.16%; Injected dose/organ (Rattus norvegicus [8]): 0.04%; Injected dose/organ (Rattus norvegicus [9]): 0.11%; Injected dose/organ (Rattus norvegicus [10]): 0.46%; Injected dose/organ (Rattus norvegicus [11]): 1.28%; Injected dose/organ (Rattus norvegicus [12]): 0.4%; Injected dose/organ (Rattus norvegicus [13]): 9.22%; Injected dose/organ (Rattus norvegicus [14]): 19.3%; Injected dose/organ (Rattus norvegicus [15]): 0.09%; Injected dose/organ (Rattus norvegicus [16]): 1.29%; Injected dose/organ (Rattus norvegicus [17]): 5.01%; Injected dose/organ (Rattus norvegicus [18]): 1.27%; Injected dose/organ (Rattus norvegicus [19]): 0.85%; Injected dose/organ (Rattus norvegicus [20]): 2.65%; Injected dose/organ (Rattus norvegicus [21]): 29.15%; Dose/g (Rattus norvegicus [22]): 0.04%; Dose/g (Rattus norvegicus [23]): 0.04%; Dose/g (Rattus norvegicus [24]): 0.11%; Injected dose/organ (Rattus norvegicus [25]): 0.78%; Injected dose/organ (Rattus norvegicus [26]): 17.43%; Injected dose/organ (Rattus norvegicus [27]): 26.73%; Injected dose/organ (Rattus norvegicus [28]): 0.78%; Injected dose/organ (Rattus norvegicus [29]): 2.78%; Injected dose/organ (Rattus norvegicus [30]): 0.19%; Injected dose/organ (Rattus norvegicus [31]): 1.02%
